How the values were obtained:
[1] = tested on: mouse leukemia L1210 cell line; assay: In vitro cell growth inhibition of mouse leukemia L1210 cells (trypan blue dye exclusion); assay type: cell-based; details: viable cell number after 24, 48 and 72 hours, read-out: ED50 (concentration exhibiting 50% of cell growth inhibition)
Method: 1. Determination of in vitro activity
(§1) (2) Cancer cell line: mouse leukemia L1210 cell line
After adding the samples each serially diluted by logarithmic dose to the cells, cells were cultured in an incubator at 37° C. and under 5% CO2 atmosphere.
The viable cell number was determined after 24, 48 and 72 hours by using trypan blue dye exclusion test.

[2] = M. J. Cleare, Biochimie 60, 835 (1978); cited from earlier work
[3] = tested on: mouse leukemia L1210 cell line; assay: In vivo (i.p.) activity: survival of BDF1 mice implanted i.p. with leukemia L1210 cells
Method: 2. Determination of in vivo (i.p.) activity
(1) Samples: Example 2, Example 6, Example 7 and Example 11
as §1
(3) Experimental method: The leukemia L1210 cells(1×10^5 cells/0.1 ml) obtained from DBA/2 donor mice were injected intraperitoneally to the BDF1 mice (6-8 weeks old, 8 mice per group). The samples were either dissolved in PBS solution or suspended in 0.5% Tween 80 depending on their solubility. These sample solutions were administered via intraperitoneal injection once a day for 5 consecutive days or at day 1, 5, and 9 after the cancer cell implantation at variable dosages. The survival rate was determined by observing the mice each day. By comparing with the average survival time of the control group (where no chemical treatment was performed), the percent average increase in the survival time(T/C, %) was calculated to determine the anticancer activity.

[4] = Lower critical solution temperature (LCST, cloud point) by UV/VIS spectrophotometer; assay type: physicochemical
Description: Thermosensitive polymers in the present invention refer to the polymers that can be solubilized in water at low temperatures but precipitates above a certain critical temperature due to the rapid decrease of their water-solubility. When such a phase transition is reversible, the phase transition temperature is called a lower critical solution temperature(LCST) or a cloud point. Below LCST, the hydrogen bonding between the polymer-water molecules is stronger than the hydrophobic interaction between the polymer-polymer molecules. As the temperature increases, however, the hydrogen bonding between the polymer-water molecules weakens whereas the hydrophobic interaction between the polymer-polymer molecules increases resulting in the precipitation of polymers in aqueous solution.
Elemental analysis of carbon, hydrogen, nitrogen in the compounds of the present invention was performed in the Special Analysis Center at KIST by using carbon, hydrogen and nitrogen analyzer (Perkin Elmer), and phosphorous and platinum analysis was performed using Polyscan 61E ICP. Hydrogen and phosphorous nuclear magnetic resonance spectra were obtained using Varian to Gemini-300, and LCST was measured by using Perkin-Elmer Lamda 18 UV/VIS spectrophotometer.

## N.N.O=C([O-])C1(C(=O)[O-])CCC1.[Pt+2] [Carboplatin, reference compound]
[1]
  IC50: 5900 nM
[2]
  LD50: 180 mg/kg
[3]; dose 40 mgkg^-1
  T/C (survival time vs control): 168.0%

## N.N.[Cl][Pt][Cl] [Cisplatin, reference compound]
[1]
  IC50: 700 nM
[3]; dose 4 mgkg^-1
  T/C (survival time vs control): 163.0%

## {NP[(OCH2 CH2)2 OC2 H5 ][L-Asp.Pt(dach)]}3 [Example 7]
[1]
  IC50: 400 nM
[3]; dose 40 mgkg^-1
  T/C (survival time vs control): 200.8%
[3]; dose 60 mgkg^-1
  T/C (survival time vs control): 226.7%
[3]; dose 80 mgkg^-1
  T/C (survival time vs control): > 271.7%
[4]
  Lower critical solution temperatures: 42.0 °C

## {NP[(OCH2 CH2)2 OC2 H5 ][L-Asp.Pt(dmach)]}3 [Example 8]
[4]
  Lower critical solution temperatures: 35.0 °C

## {NP[(OCH2 CH2)2 OC2 H5 ][L-Asp.Pt(dmpda)]}3 [Example 6]
[3]; dose 30 mgkg^-1
  T/C (survival time vs control): 146.1%
[3]; dose 60 mgkg^-1
  T/C (survival time vs control): 162.0%
[4]
  Lower critical solution temperatures: 46.5 °C

## {NP[(OCH2 CH2)2 OC2 H5 ][L-Mal.Pt(dach)]}3 [Example 5]
[4]
  Lower critical solution temperatures: 39.0 °C

## {NP[(OCH2 CH2)2 OC3 H7 ][L-Asp.Pt(dach)]}3 [Example 9]
[4]
  Lower critical solution temperatures: 22.0 °C

## {NP[(OCH2 CH2)2 OC4 H9 ][L-Asp.Pt(dach)]}3 [Example 10]
[4]
  Lower critical solution temperatures: 12.0 °C

## {NP[(OCH2 CH2)2 OCH3 ][L-Asp.Pt(dach)]}3 [Example 2]
[1]
  IC50: 400 nM
[3]; dose 30 mgkg^-1
  T/C (survival time vs control): 217.3%
[3]; dose 60 mgkg^-1
  T/C (survival time vs control): > 293.8%
[3]; dose 90 mgkg^-1
  T/C (survival time vs control): > 511.0%
[4]
  Lower critical solution temperatures: 92.0 °C

## {NP[(OCH2 CH2)2 OCH3 ][L-Asp.Pt(dmach)]}3 [Example 3]
[4]
  Lower critical solution temperatures: 74.5 °C

## {NP[(OCH2 CH2)2 OCH3 ][L-Asp.Pt(dmpda]}3 [Example 1]
[4]
  Lower critical solution temperatures: 98.0 °C

## {NP[(OCH2 CH2)2 OCH3 ][L-Glu.Pt(dach)]}3 [Example 4]
[4]
  Lower critical solution temperatures: 82.0 °C

## {NP[(OCH2 CH2)7 OCH3 ][L-Asp.Pt(dach)]}3 [Example 11]
[1]
  IC50: 200 nM
[3]; dose 30 mgkg^-1
  T/C (survival time vs control): 197.0%
[3]; dose 60 mgkg^-1
  T/C (survival time vs control): 229.2%
[3]; dose 90 mgkg^-1
  T/C (survival time vs control): 204.2%
[4]
  Lower critical solution temperatures: 84.0 °C

## {NP[(OCH2 CH2)12 OCH3 ][L-Asp.Pt(dach)]}3 [Example 12]
[4]
  Lower critical solution temperatures: above 100 °C

— US6333422A, “Thermosensitive cyclotriphosphazene-platinum complex conjugate, its preparation method and anticancer agent containing the same” (Korea Institute of Science and Technology, priority 2000, dated 2001)
